Entries after “also recorded” stand apart in the source; their conditions may differ.
Legend:
[1] = tested on: ClpB-YFP in dnaK103 E. coli; assay: Confocal microscopy of ClpB-YFP localization; type: cell-based, Escherichia coli; conditions: dnaK103, 100-μM DBeQ, 45 °C 30 min
Method: ClpB-YFP and Luciferase-YFP were expressed at low levels in E. coli strains ΔclpB, dnaK103, and dnaK756 as described before ([44]). The expression of ClpB-YFP and YFP-Luciferase was initiated by addition of 200-μM IPTG or 0.02% (w/v) arabinose, respectively. The bacterial cells were cultured at 30 °C with 100-μM DBeQ or DMSO only. Protein translation was stopped by addition of erythromycin (30 μg/ml), and each culture was divided into two samples. One sample remained at 30 °C (control), whereas the other sample was transferred to 45 °C for 30 min (heat-shock conditions).
A thin layer of 1% agarose (TopVision Low Melting Point Agarose, Thermo Scientific) was prepared on a clean microscope glass slide. A small drop of 1% agarose was placed near the frosted end of the glass slide while bringing a second glass slide at a 30 to 45° angle from above, allowing the agarose drop to spread along the contact edge. […] An E. coli culture sample (1 μl) was immediately placed on the agarose-covered glass slide, covered with a cover slip, and used for fluorescence imaging.
Fluorescence imaging was performed using a Carl Zeiss LSM 880 Airyscan confocal microscope equipped with a Plan-Apochromat 63x/1.40 Oil DIC M27 objective coupled with a YFP Filter (excitation at 514 nm, emission at 561 nm, laser strength 0.98%). […]

[2] = target: T1, ClpB–DnaK bichaperone system (DnaK–DnaJ–GrpE + ClpB) (Escherichia coli, UniProt P0A6Y8+P63284); assay: Aggregate reactivation assay with KJE + ClpB; type: biochemical
T1 construct: full-length E. coli DnaK (residues 1–638); made in house; host or cells: E. coli BL21(DE3) for DnaK
Method: G6PDH was chemically denatured by mixing 5 μl of the G6PDH stock solution (441 μM) with 5 μl of buffer A (10 M urea, 16% glycerol, 40-mM DTT) preheated at 47 °C. The samples of G6PDH in buffer A were incubated for 5 min at 47 °C. Subsequently, 5 μl of denatured G6PDH was mixed with 95 μl of buffer B (50-mM Tris-HCl, pH 7.4, 20-mM Mg(OAc)2, 30-mM KCl, 1-mM EDTA, 1-mM β-mercaptoethanol) preheated at 47 °C to initiate protein refolding, which, under these conditions, is inefficient and leads to misfolding and aggregation of G6PDH ([69]). G6PDH aggregate production was arrested after 1 min (for refolding by KJE) or 15 min (for refolding by KJE with ClpB) by transferring into ice for 2 min. To observe the aggregate reactivation, aggregated G6PDH was diluted 10-fold in buffer C (50-mM Tris-HCl, pH 7.4, 20-mM MgCl2, 1-mM EDTA, 0.5-mM TCEP) containing the chaperones KJE (5.5-μM DnaK, 1.1-μM DnaJ, 1.1-μM GrpE) or KJE-ClpB (5.5-μM DnaK, 1.1-μM DnaJ, 1.1-μM GrpE, 1.65-μM ClpB (hexamer)). G6PDH in buffer C without chaperones was used as a control for a spontaneous aggregate reactivation. The chaperone-G6PDH samples (18 μl) were supplemented with 1 μl of DBeQ in DMSO or pure DMSO as a control. The samples were incubated for 2 min at 30 °C. The aggregate reactivation was initiated by adding 1 μl of 100-mM ATP, followed by incubation for 60 min at 30 °C. […] The plate was inserted into Synergy H1 plate reader (BioTek, Winooski, VT) with the chamber temperature at 30 °C, and the sample absorbance at 340 nm was measured after 10 min. The amount of NADPH produced was calculated based on the NADPH molar extinction coefficient, Ɛ340 = 6220 [M^−1 ⋅ cm^−1].
Firefly luciferase (220 μM) was diluted 300-fold in PBS buffer with 1 mg/ml bovine serum albumin and then incubated for 12 min at 45 °C. […] Luminescence was measured using Synergy H1 plate reader (BioTek, Winooski, VT).

E. coli MC4100 = assay: Bacterial growth and viability, E. coli MC4100; type: cell-based, Escherichia coli
Method: E. coli MC4100, MC4100ΔclpB, dnaK103, and dnaK756 strains were used to determine an influence of DBeQ on bacterial growth and viability. Bacteria were maintained in the LB media, and in the case of the MC4100ΔclpB strain, LB was supplemented with 30 μg/ml kanamycin. All experiments were initiated by preparing overnight cultures inoculated from single colonies and grown at 37 °C. The dnaK103 and dnaK756 overnight cultures were grown at 30 °C. On the following day, the cultures were diluted 100-fold in 10 ml of LB without antibiotics and incubated at 37 °C. The culture optical density was monitored at 600 nm. When absorbance at 600 nm reached 0.4, the culture was divided into 1-ml aliquots and supplemented with 10 μl of DMSO or different concentrations of DBeQ in DMSO. The samples were immediately transferred into an incubator/shaker at temperature 37, 45, or 50 °C. Bacteria were cultured for up to 4 h with shaking (200 RPM). At specific time points, 100 μl of each culture was withdrawn and serially diluted in sterile 0.9% NaCl up to 10^6-fold dilution. To estimate the number of viable cells, 5 μl or 10 μl of the diluted cultures was spread on the LB-agar plate without an antibiotic. After a complete adsorption of liquid on the LB-agar surface, the plates were incubated overnight at 37 °C. On the following day, the bacterial colonies were counted and the colony-forming units/ml were calculated.

T1 sequence (P63284 whole entry, the tested form may be a part): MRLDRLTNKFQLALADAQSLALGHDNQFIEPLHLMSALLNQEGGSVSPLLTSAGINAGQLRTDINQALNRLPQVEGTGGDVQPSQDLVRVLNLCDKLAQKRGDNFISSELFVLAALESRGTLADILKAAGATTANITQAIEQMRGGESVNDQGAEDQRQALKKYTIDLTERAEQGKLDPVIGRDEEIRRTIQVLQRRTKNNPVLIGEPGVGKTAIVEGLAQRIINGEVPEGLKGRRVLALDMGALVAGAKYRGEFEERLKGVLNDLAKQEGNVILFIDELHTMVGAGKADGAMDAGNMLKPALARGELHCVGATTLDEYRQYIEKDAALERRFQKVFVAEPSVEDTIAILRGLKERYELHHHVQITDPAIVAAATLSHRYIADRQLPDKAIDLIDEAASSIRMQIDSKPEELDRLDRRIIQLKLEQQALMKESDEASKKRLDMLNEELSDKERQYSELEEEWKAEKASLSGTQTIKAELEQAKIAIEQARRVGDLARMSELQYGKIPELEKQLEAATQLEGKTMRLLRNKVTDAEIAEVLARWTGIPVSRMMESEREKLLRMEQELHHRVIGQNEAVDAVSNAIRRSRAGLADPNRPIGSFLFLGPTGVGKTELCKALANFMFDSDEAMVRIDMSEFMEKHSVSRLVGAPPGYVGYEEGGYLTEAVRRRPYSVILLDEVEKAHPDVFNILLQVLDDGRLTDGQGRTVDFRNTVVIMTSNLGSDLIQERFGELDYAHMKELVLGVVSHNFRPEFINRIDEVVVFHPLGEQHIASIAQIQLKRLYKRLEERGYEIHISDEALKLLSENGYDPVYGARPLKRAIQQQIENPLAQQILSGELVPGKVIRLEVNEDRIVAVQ
T1 sequence (P0A6Y8 whole entry, the tested form may be a part): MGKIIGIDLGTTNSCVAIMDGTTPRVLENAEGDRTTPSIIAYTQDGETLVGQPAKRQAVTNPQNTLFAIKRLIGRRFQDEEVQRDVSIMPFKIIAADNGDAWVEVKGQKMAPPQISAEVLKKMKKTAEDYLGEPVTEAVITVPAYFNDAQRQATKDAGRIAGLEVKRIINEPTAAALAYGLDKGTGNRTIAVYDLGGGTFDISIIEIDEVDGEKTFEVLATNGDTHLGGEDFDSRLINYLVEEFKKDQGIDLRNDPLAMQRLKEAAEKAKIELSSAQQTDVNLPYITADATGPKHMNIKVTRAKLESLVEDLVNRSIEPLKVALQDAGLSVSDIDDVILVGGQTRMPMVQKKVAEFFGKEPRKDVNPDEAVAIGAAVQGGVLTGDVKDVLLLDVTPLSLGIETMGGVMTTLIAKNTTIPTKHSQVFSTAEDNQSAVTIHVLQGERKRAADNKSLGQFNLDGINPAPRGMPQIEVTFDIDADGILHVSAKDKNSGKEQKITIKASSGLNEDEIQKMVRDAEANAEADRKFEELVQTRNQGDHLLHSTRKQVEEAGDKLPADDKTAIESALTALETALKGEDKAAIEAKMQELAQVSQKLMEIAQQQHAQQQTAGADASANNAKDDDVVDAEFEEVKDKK

c1ccc(CNc2nc(NCc3ccccc3)c3ccccc3n2)cc1 [DBeQ, N^2,N^4-dibenzylquinazoline-2,4-diamine]
ClpB-YFP localization with aggregates [1]: ClpB colocalizes with the aggregates even in dnaK103
IC50 [2]: ~5 µM
inhibition of ClpB-dependent reactivation of aggregated luciferase ([2]; KJE + ClpB, 20 min, 25 °C): inhibited
inhibition of ClpB-dependent reactivation of aggregated G6PDH ([2]; KJE + ClpB, 60 min, 30 °C, compared with KJE alone): inhibited by DBeQ with a several-fold lower IC50 than ClpB-independent reactivation by KJE alone
effect on growth of E. coli (E. coli MC4100; MC4100, 37 °C): suppressed the growth; also recorded: inhibited the growth
effect on viability of E. coli under heat shock (E. coli MC4100; MC4100, 45 °C): exacerbated by heat shock; also recorded: strongly inhibited
effect on viability of E. coli at severe heat shock (E. coli MC4100; MC4100, 50 °C): lost viability at the lowest DBeQ concentrations tested
